Earlier results in PMC7559897, “Designed Antimicrobial Peptides Against Trauma-Related Cutaneous Invasive Fungal Wound Infections” (Journal of Fungi, 2020).

Assays:
S. aureus = details: subinhibitory concentrations, growth at higher concentrations; cited from earlier work
Source text: (§1) The rapid destruction of pathogenic cells by dAMPs infers a theoretical reduced likelihood of developing bacterial resistance. However, to confirm this, dAMPs were serially passaged against Candida and against both P. aeruginosa and S. aureus at subinhibitory concentrations to ascertain whether resistance, assessed by growth at higher concentrations, occurs. Resistance was not observed.

P. aeruginosa = details: subinhibitory concentrations, growth at higher concentrations; cited from earlier work
Source text: as §1

| Structure (SMILES) | resistance during serial passaging against S. aureus (S. aureus) | resistance during serial passaging against P. aeruginosa (P. aeruginosa) |
| --- | --- | --- |
| CCC[C@@H]1C[C@@H](C(=O)N[C@@H]([C@H]2O[C@H](SC)[C@H](O)[C@@H](O)[C@H]2O)[C@H](C)Cl)N(C)C1 [clindamycin] | strong resistance | – |
| CNC(C)C1CCC(N)C(OC2C(N)CC(N)C(OC3OCC(C)(O)C(NC)C3O)C2O)O1 (centres unmarked) [Gentamicin] | – | strong resistance |
